These results are taken from PubChem BioAssay (NCI).

Test systems include CCRF-CEM leukemia; EKVX NSCLC; HCT-15 colon; HT29 colon; M14 melanoma; NCI-H226 lung; OVCAR-5 ovarian; SK-MEL-2 melanoma; TK-10 renal; UACC-62 melanoma.
What all share (experiment): inhibition of tumour cell growth, NCI panel, 48 h

Each structure is given as a SMILES string.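 Five compound concentrations were applied to cells in 96-well plates for 48 hours; endpoints were derived by simple linear interpolation of the resulting dose-response curve. GI50: concentration for 50% inhibition of growth. TGI denotes the concentration required for complete inhibition of growth.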

Consider `O=C(/C=C/c1cccnc1)NCCCCC1CCCN(C(=O)c2ccccc2)C1` (centres undefined), for which the GI50 in the experiment with CCRF-CEM leukemia is less than 0.01 µM; in the experiment with EKVX NSCLC it was greater than 63.1 µM; in the experiment with HCT-15 colon, less than 0.01 µM; in the experiment on HT29 colon it was less than 0.01 µM; in the experiment with M14 melanoma, less than 0.01 µM; in the experiment on NCI-H226 lung, greater than 79.5 µM. Moreover, the values for the GI50 in the experiment on SK-MEL-2 melanoma, with TK-10 renal and with UACC-62 melanoma were 5.71 µM, greater than 100 µM and greater than 90.6 µM, respectively. Also, the TGI with CCRF-CEM leukemia, in the experiment on EKVX NSCLC, in the experiment on HCT-15 colon, in the experiment on HT29 colon, in the experiment with M14 melanoma and with NCI-H226 lung was greater than 100 µM in each case. Moreover, the TGI with OVCAR-5 ovarian, in the experiment with SK-MEL-2 melanoma, in the experiment on TK-10 renal and in the experiment with UACC-62 melanoma was greater than 100 µM each time.

`BrC1=CC=C2NC=CC3=CC=NC1C32` (centres undefined): the TGI in the experiment on CCRF-CEM leukemia was 28.6 µM; in the experiment on EKVX NSCLC, greater than 96.3 µM; in the experiment with HCT-15 colon it was greater than 100 µM; in the experiment on HT29 colon, greater than 66.2 µM; with M14 melanoma, 56.2 µM; with NCI-H226 lung it was 45.9 µM. In addition, the TGI in the experiment with OVCAR-5 ovarian was greater than 75.5 µM; in the experiment with SK-MEL-2 melanoma it was 56.9 µM; in the experiment on TK-10 renal it was 99.8 µM; in the experiment with UACC-62 melanoma, 22.6 µM.

On to `COc1cc(/C=C(\C#N)C(=O)c2ccccc2)ccc1O`, for which the TGI in the experiment with CCRF-CEM leukemia, in the experiment with EKVX NSCLC, with HCT-15 colon, with HT29 colon, in the experiment on M14 melanoma and in the experiment on NCI-H226 lung was greater than 100 µM each time. Further, the TGI in the experiment with OVCAR-5 ovarian, in the experiment with SK-MEL-2 melanoma, in the experiment on TK-10 renal and with UACC-62 melanoma was greater than 100 µM throughout.

`O=c1cc2ccccc2nn1Cc1cccc(Cl)c1`: the TGI in the experiment with CCRF-CEM leukemia, in the experiment with EKVX NSCLC, with HCT-15 colon, with HT29 colon, in the experiment on M14 melanoma and with NCI-H226 lung was greater than 100 µM throughout. For the same compound, the TGI with OVCAR-5 ovarian, in the experiment with SK-MEL-2 melanoma, in the experiment with TK-10 renal and in the experiment with UACC-62 melanoma was greater than 100 µM throughout.

Take `COc1ccc(-n2nnnc2-c2c[nH]c3c(F)cc(F)cc23)cc1`: the GI50 in the experiment with CCRF-CEM leukemia, with EKVX NSCLC, in the experiment on HCT-15 colon, in the experiment with HT29 colon, in the experiment with M14 melanoma and in the experiment on NCI-H226 lung was greater than 100 µM throughout. For the same compound, the GI50 with OVCAR-5 ovarian, with SK-MEL-2 melanoma, in the experiment on TK-10 renal and with UACC-62 melanoma was greater than 100 µM each time. The TGI in the experiment on CCRF-CEM leukemia, with EKVX NSCLC, in the experiment on HCT-15 colon, with HT29 colon, in the experiment with M14 melanoma and in the experiment with NCI-H226 lung was greater than 100 µM throughout. The TGI in the experiment on OVCAR-5 ovarian, in the experiment on SK-MEL-2 melanoma, with TK-10 renal and in the experiment with UACC-62 melanoma was greater than 100 µM in each case.

For `CCCCCCCCCCCCCC(=O)CC(=O)c1c(O)cccc1O`, the TGI with CCRF-CEM leukemia was 41.6 µM; with EKVX NSCLC it was 68.8 µM; with HCT-15 colon it was 58.8 µM; in the experiment on HT29 colon it was greater than 100 µM; with M14 melanoma, greater than 100 µM; with NCI-H226 lung, 80.3 µM. Further, the TGI with OVCAR-5 ovarian was greater than 100 µM; in the experiment with SK-MEL-2 melanoma, 41.4 µM; in the experiment on TK-10 renal it was greater than 100 µM; with UACC-62 melanoma it was greater than 100 µM.

For `C=C(CN1C(=O)[C@H]2CCCN2C(=O)c2ccccc21)c1ccc(C(=O)O)cc1`, the GI50 in the experiment with CCRF-CEM leukemia, with EKVX NSCLC, with HCT-15 colon, in the experiment with HT29 colon, with M14 melanoma and in the experiment with NCI-H226 lung was greater than 100 µM throughout. The GI50 in the experiment on OVCAR-5 ovarian, in the experiment with SK-MEL-2 melanoma, in the experiment on TK-10 renal and with UACC-62 melanoma was greater than 100 µM throughout. Moreover, the TGI in the experiment on CCRF-CEM leukemia, in the experiment on EKVX NSCLC, in the experiment with HCT-15 colon, in the experiment on HT29 colon, in the experiment on M14 melanoma and in the experiment on NCI-H226 lung was greater than 100 µM each time. Also, the TGI in the experiment with OVCAR-5 ovarian, with SK-MEL-2 melanoma, in the experiment on TK-10 renal and in the experiment with UACC-62 melanoma was greater than 100 µM throughout.
